Source: ChEMBL document CHEMBL4819103, “Discovery of selective fragment-sized immunoproteasome inhibitors” (Eur J Med Chem, 2021)

Assays:
[1] = target: T1, Proteasome subunit beta type-8 (Homo sapiens) (UniProt P28062); assay: Inhibition of human chymotrypsin-like beta 5i subunit of iCP assessed as residual activity using suc-LLVY-AMC as flurogenic substrate at 100 uM for 90 mins by fluorescence-based assay
T1 sequence (whole entry): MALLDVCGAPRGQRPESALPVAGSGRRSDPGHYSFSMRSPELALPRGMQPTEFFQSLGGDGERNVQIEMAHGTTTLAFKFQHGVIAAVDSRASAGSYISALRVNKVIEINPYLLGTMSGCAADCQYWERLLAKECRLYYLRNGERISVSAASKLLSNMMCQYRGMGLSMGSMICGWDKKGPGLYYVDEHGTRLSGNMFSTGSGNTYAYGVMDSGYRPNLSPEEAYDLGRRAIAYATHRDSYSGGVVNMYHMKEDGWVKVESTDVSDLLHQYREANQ

[2] = target: T2, Proteasome subunit beta type-8 (Homo sapiens, UniProt P28062); assay: Inhibition of human chymotrypsin-like beta 5i subunit of iCP using suc-LLVY-AMC as flurogenic substrate for 90 mins by fluorescence-based assay
T2 sequence (P28062 whole entry): T1 sequence (whole entry)

[3] = target: T3, Proteasome Macropain subunit MB1 (Homo sapiens) (UniProt P28074); assay: Inhibition of beta 5 chymotrypsin-like activity (unknown origin) at 100 uM using Suc-LLVY-AMC as substrate for 90 mins by fluorescence based assay; parameters: scale not given: the % may be the effect or the level left
T3 sequence (whole entry): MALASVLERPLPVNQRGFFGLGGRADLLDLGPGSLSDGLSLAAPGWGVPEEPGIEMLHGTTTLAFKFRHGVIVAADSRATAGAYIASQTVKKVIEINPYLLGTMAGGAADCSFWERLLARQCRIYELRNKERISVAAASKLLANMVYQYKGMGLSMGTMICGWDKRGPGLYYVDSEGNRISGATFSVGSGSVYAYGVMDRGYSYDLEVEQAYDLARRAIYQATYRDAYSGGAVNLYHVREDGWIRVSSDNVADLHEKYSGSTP

[4] = Thiol reactivity of the compound assessed as TNB2-depletion at 200 uM measured upto 24 hrs by TNB2-depletion assay; type: physicochemical
[5] = Glutathione reactivity of compound at pH 7.5 measured by HPLC-MS assay; type: physicochemical
[6] = Glutathione reactivity of compound at pH 8 measured by HPLC-MS assay; type: physicochemical
[7] = Glutathione reactivity of compound at pH 8.5 measured by HPLC-MS assay; type: physicochemical
[8] = Glutathione reactivity of compound at pH 9 measured by HPLC-MS assay; type: physicochemical

| Compound | Activity [1] [%] | IC50 [2] [µM] | also measured |
| --- | --- | --- | --- |
| Cn1c(C#N)nc2ccccc21 | 99 | – | – |
| Cn1c(C#N)nc2ccc(Cl)cc21 | 50 | – | – |
| Sc1nc2ccccc2[nH]1 [2-MERCAPTOBENZIMIDAZOLE] | – | 114 | Activity [3]: 100%; Drug metabolism [4]: Metabolite_Notdetected |
| O=C(CCc1cccnc1)Nc1ccc2[nH]c(=S)sc2c1 | – | 26 | – |
| O=C(CCc1cccnc1)Nc1ccc2[nH]c(=S)oc2c1 | 56 | – | – |
| Nc1ccc2nc(S)sc2c1 | 80 | – | – |
| N#Cc1nc2cc(Cl)ccc2o1 | – | 67 | Activity [3]: 101% |
| O=C(Nc1ccc2nc(S)sc2c1)c1ccccc1 | – | 7.1 | – |
| CS(=O)(=O)c1nc2ccccc2s1 | 88 | – | – |
| CCOc1ccc2nc(S)sc2c1 | – | 9 | – |
| Cn1c(=S)[nH]c2ccc(NC(=O)[C@H]3CCCN3)cc21 | – | 109 | – |
| C=CC(=O)Nc1nc2ccccc2n1C | 83 | – | – |
| O=C(Cc1cccnc1)Nc1ccc2[nH]c(=S)sc2c1 | – | 15 | – |
| Cn1c(=S)[nH]c2cccc(NC(=O)CCc3cccnc3)c21 | 92 | – | – |
| Cn1c(S)nc2ccccc21 | – | 94 | Activity [3]: 91%; Drug metabolism [4]: Metabolite_Notdetected |
| Cn1c(=S)[nH]c2ccc(NC(=O)CCc3cccnc3)cc21 | 72 | – | – |
| O=C(CCl)Nc1nc2ccccc2s1 | 73 | – | – |
| O=C(Cc1cccnc1)Nc1ccc2[nH]c(=S)oc2c1 | 50 | – | – |

| Compound | Activity [1] [%] | IC50 [2] [µM] | also measured |
| --- | --- | --- | --- |
| Sc1nc2cc(Cl)ccc2s1 | – | 32 | – |
| Oc1cccc2oc(S)nc12 | – | 4.1 | Activity [3]: 87%; Drug metabolism [4]: Metabolite_Detected |
| Cn1c(=S)[nH]c2ccc(NC(=O)Cc3cccnc3)cc21 | 89 | – | – |
| C=CS(=O)(=O)c1nc2ccccc2s1 | 40 | – | – |
| N#Cc1nc2ccc(Cl)cc2s1 | 58 | – | – |
| N#Cc1nc2c(Cl)cccc2s1 | – | 85 | – |
| Sc1nc2ccccc2o1 | – | 17 | Activity [3]: 116%; Drug metabolism [4]: Metabolite_Detected |
| C=CC(=O)Nc1nc2ccccc2s1 | 44 | – | – |
| Cn1c(C#N)nc2cccc(Cl)c21 | – | 20 | Activity [3]: 89% |
| N#Cc1nc2cccc(Cl)c2s1 | – | 18 | Activity [3]: 72% |
| O=C(Nc1ccc2[nH]c(=S)oc2c1)[C@H]1CCCN1 | 65 | – | – |
| O=C(Nc1ccc2[nH]c(=S)oc2c1)c1ccccc1 | – | 49 | – |
| O=[N+]([O-])c1ccc2nc(S)sc2c1 | 69 | – | Drug metabolism [5]: Metabolite_Notdetected; Drug metabolism [6]: Metabolite_Notdetected; Drug metabolism [7]: Metabolite_Notdetected; Drug metabolism [8]: Metabolite_Notdetected |
| N#Cc1nc2ccccc2o1 | – | 83 | Activity [3]: 82% |
| Sc1nc2cc(Cl)ccc2o1 | – | 96 | Drug metabolism [5]: Metabolite_Notdetected; Drug metabolism [6]: Metabolite_Notdetected; Drug metabolism [7]: Metabolite_Notdetected; Drug metabolism [8]: Metabolite_Notdetected |
| N#Cc1nc2ccccc2s1 | 61 | – | – |
| Sc1nc2ccccc2s1 [2-MERCAPTOBENZOTHIAZOLE] | – | 13 | Activity [3]: 85%; Drug metabolism [4]: Metabolite_Detected |

Continued, in another order:

| Activity [1] [%] | IC50 [2] [µM] | Compound | also measured |
| --- | --- | --- | --- |
| – | 81 | COc1cccc2oc(=S)[nH]c12 | – |
| 47 | – | Cn1c(=S)[nH]c2cccc(NC(=O)c3ccccc3)c21 | – |
| 56 | – | Cc1ccc2sc(=S)[nH]c2c1 | – |
| – | 149 | CC(=O)Nc1ccc2[nH]c(=S)n(C)c2c1 | – |
| – | 79 | Nc1cccc2[nH]c(=S)oc12 | – |
| – | 28 | N#Cc1nc2ccc(Cl)cc2[nH]1 | Activity [3]: 71% |
| – | 9.7 | S=c1[nH]c2cccc(Cl)c2s1 | Drug metabolism [5]: Metabolite_Notdetected; Drug metabolism [6]: Metabolite_Notdetected; Drug metabolism [7]: Metabolite_Notdetected; Drug metabolism [8]: Metabolite_Notdetected; Activity [3]: 59%; Drug metabolism [4]: Metabolite_Detected |
| – | 95 | O=C(Nc1ccc2[nH]c(=S)sc2c1)[C@H]1CCCN1 | – |
| 70 | – | N#Cc1cccc(-c2cccc3[nH]c(=S)sc23)c1 | – |
| 94 | – | Cn1c(=S)[nH]c2cccc(NC(=O)Cc3cccnc3)c21 | – |
| – | 9 | O=[N+]([O-])c1ccc2oc(=S)[nH]c2c1 | Drug metabolism [5]: Metabolite_Notdetected; Drug metabolism [6]: Metabolite_Notdetected; Drug metabolism [7]: Metabolite_Notdetected; Drug metabolism [8]: Metabolite_Notdetected |
| – | 11 | S=c1[nH]c2cccc(Br)c2s1 | Activity [3]: 84%; Drug metabolism [4]: Metabolite_Detected |
| 54 | – | S=c1[nH]c2cccc(-c3ccccc3)c2s1 | – |
| – | 1.8 | Cn1c(=S)[nH]c2cccc(Cl)c21 | Drug metabolism [5]: Metabolite_Notdetected; Drug metabolism [6]: Metabolite_Notdetected; Drug metabolism [7]: Metabolite_Notdetected; Drug metabolism [8]: Metabolite_Notdetected; Activity [3]: 99%; Drug metabolism [4]: Metabolite_Detected |
| 99 | – | Cc1ccc2oc(=S)[nH]c2c1 | – |
| – | 75 | N#Cc1nc2cccc(Cl)c2[nH]1 | Activity [3]: 82% |
| 58 | – | O=[N+]([O-])c1ccc2sc(=S)[nH]c2c1 | Drug metabolism [5]: Metabolite_Notdetected; Drug metabolism [6]: Metabolite_Notdetected; Drug metabolism [7]: Metabolite_Notdetected; Drug metabolism [8]: Metabolite_Notdetected |
| – | 16 | S=c1[nH]c2cccc(Cl)c2o1 | Drug metabolism [5]: Metabolite_Notdetected; Drug metabolism [6]: Metabolite_Notdetected; Drug metabolism [7]: Metabolite_Notdetected; Drug metabolism [8]: Metabolite_Notdetected; Activity [3]: 94%; Drug metabolism [4]: Metabolite_Detected |
| – | 60 | S=c1[nH]c2cccc(Cl)c2[nH]1 | – |

| Activity [1] [%] | IC50 [2] [µM] | Compound | also measured |
| --- | --- | --- | --- |
| 87 | – | S=c1[nH]c2cccc(Br)c2[nH]1 | – |
| 59 | – | COc1ccc2oc(=S)[nH]c2c1 | – |
| – | 3 | COC(=O)c1ccc2[nH]c(=S)oc2c1 | – |
| 63 | – | CC(=O)Nc1ccc2[nH]c(=S)oc2c1 | – |
| – | 13 | COc1ccc2[nH]c(=S)sc2c1 | – |
| – | 27 | Nc1ccc2[nH]c(=S)oc2c1 | – |
| – | 36 | S=c1[nH]c2c(Cl)cccc2o1 | – |
| – | 130 | CC(=O)Nc1ccc2[nH]c(=S)sc2c1 | – |
| 67 | – | Cn1c(=S)[nH]c2ccc(N)cc21 | – |
| 52 | – | Cn1c(=S)[nH]c2ccc([N+](=O)[O-])cc21 | – |
| – | 129 | O=C(Nc1cccc2[nH]c(=S)oc12)c1ccccc1 | – |
| 63 | – | Cn1c(=S)[nH]c2cccc(N)c21 | – |
| – | 30 | Cc1ccc2[nH]c(=S)oc2c1 | Activity [3]: 92%; Drug metabolism [4]: Metabolite_Detected |
| – | 156 | O=C(Cc1cccnc1)Nc1cccc2[nH]c(=S)oc12 | – |
| – | 7.2 | COc1ccc2sc(=S)[nH]c2c1 | – |
| 89 | – | N#Cc1nc2ccccc2[nH]1 | – |
| – | 43 | S=c1[nH]c2c(Cl)cccc2s1 | Drug metabolism [5]: Metabolite_Notdetected; Drug metabolism [6]: Metabolite_Notdetected; Drug metabolism [7]: Metabolite_Notdetected; Drug metabolism [8]: Metabolite_Notdetected |
| – | 65 | S=c1[nH]c2ccc(Cl)cc2o1 | Drug metabolism [5]: Metabolite_Notdetected; Drug metabolism [6]: Metabolite_Notdetected; Drug metabolism [7]: Metabolite_Notdetected; Drug metabolism [8]: Metabolite_Notdetected |
